The text below walks through data of publication PMC9832378 (Drug Metabolism and Disposition, 2023).

As a reminder, the Km is the concentration of substrate that gives half-maximal velocity. The term Vmax denotes the top rate of the reaction or transport when substrate is in excess.

Data set [1] concerns COX formation in pooled HLMs. As to conditions: 500 μM COT, vs control without inhibitor.
For data set [2] the following is noted: urine of Caucasian smokers; ref Rangiah et al., 2011; cited from earlier work.
A further data set has as its target CYP2C19 (Homo sapiens, UniProt P33261). As to conditions: UM2C19/EM2C19 genotype groups compared with PM2C19 genotype group; ref Li-Wan-Po et al., 2010; cited from earlier work.
The conditions of data set [3]: ref Jarvis et al., 1988; cited from earlier work.
Data set [4] is described as follows: Kinetic analysis of COX formation in pooled HLMs. The data set is classed as in vitro ADME, human. The note with it: pooled HLMs from 20 individuals.
The next data set has as its target CYP2E1 (Homo sapiens, UniProt P05181). The data set is classed as in vitro ADME. As to conditions: microsomes of HEK293 cells overexpressing CYP2E1.
Data set [5] concerns the target T1, CYP2B6 (Homo sapiens, UniProt P20813).
T1 sequence (P20813 1-491): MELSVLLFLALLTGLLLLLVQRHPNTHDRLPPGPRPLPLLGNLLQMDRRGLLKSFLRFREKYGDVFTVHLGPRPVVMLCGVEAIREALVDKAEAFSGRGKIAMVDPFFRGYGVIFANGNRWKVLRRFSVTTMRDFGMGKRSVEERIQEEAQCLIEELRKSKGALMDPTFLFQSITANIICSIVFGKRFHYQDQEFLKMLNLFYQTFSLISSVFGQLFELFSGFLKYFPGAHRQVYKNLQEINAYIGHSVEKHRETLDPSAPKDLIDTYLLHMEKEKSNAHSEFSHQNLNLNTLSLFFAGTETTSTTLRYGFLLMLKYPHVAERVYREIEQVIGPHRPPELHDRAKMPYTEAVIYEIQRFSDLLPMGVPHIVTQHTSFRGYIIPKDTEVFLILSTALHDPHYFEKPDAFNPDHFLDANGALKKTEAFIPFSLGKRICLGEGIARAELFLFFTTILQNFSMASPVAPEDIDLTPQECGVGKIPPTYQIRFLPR
The data set is classed as in vitro ADME. As to conditions: microsomes of HEK293 cells overexpressing CYP2B6.

The next data set has as its target CYP3A4 (Homo sapiens, UniProt P08684). The data set is classed as in vitro ADME. The note with it: microsomes of HEK293 cells overexpressing CYP3A4.
For a further data set, the system named is P450. The note with it: rat, in vivo; cited from earlier work.
Another data set deals with CYP2A6. The note with it: formation of COT from nicotine, ref Yamanaka et al., 2005; cited from earlier work.
Data set [6] concerns CYP2B6. As to conditions: formation of COT from nicotine, ref Yamanaka et al., 2005; cited from earlier work.
The conditions of data set [7]: in smokers; no reference given; cited from earlier work.

Structures are written as SMILES. Like-named read-outs stand apart in the source and are kept apart here. A value given as a limit tells only on which side of the number the result lay.

Chain of CYP2C19 (P33261 whole entry): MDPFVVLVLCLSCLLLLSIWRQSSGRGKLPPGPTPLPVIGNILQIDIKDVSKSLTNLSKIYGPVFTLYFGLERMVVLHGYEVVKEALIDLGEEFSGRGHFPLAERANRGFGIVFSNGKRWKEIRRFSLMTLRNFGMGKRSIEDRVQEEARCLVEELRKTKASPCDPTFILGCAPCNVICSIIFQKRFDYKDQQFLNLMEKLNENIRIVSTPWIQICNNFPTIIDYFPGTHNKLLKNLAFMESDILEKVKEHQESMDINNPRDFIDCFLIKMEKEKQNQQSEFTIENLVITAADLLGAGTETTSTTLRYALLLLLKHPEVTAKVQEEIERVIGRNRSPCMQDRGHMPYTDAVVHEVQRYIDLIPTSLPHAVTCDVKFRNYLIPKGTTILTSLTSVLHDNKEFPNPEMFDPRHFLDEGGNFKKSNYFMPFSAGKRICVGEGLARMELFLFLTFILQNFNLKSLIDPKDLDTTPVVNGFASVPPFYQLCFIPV
Chain of CYP3A4 (P08684 whole entry): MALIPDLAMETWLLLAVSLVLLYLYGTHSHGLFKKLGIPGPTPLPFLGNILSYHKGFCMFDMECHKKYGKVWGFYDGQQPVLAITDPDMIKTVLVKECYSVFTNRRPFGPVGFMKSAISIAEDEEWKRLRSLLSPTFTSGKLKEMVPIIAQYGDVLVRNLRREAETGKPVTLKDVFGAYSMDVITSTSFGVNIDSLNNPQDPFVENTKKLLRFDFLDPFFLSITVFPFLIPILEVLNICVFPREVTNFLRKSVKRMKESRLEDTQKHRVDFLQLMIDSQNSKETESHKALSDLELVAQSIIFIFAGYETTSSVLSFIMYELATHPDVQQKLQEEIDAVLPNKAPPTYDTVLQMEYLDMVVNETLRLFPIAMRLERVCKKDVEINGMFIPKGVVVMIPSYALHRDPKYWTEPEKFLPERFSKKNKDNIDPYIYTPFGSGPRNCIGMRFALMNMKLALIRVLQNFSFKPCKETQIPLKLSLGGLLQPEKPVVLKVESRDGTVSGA
Chain of CYP2E1 (P05181 whole entry): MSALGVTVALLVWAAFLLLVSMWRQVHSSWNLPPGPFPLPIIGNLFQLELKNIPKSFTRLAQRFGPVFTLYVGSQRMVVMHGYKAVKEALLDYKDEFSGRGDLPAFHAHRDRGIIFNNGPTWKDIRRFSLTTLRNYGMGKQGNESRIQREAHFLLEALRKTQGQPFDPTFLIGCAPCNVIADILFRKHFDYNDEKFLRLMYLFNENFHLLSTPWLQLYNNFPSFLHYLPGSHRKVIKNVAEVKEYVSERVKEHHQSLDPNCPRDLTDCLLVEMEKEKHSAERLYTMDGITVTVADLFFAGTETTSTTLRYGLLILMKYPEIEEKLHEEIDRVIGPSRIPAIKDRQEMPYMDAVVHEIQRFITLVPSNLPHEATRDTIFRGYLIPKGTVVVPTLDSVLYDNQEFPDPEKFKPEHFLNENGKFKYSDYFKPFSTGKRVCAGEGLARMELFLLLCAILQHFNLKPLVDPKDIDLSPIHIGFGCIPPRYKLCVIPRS

For `N[C@@H]1C[C@H]1c1ccccc1` (racemic) [tranylcypromine], the “decrease in COX formation” value in [1] (1 µM inhibitor) was 15%.
Take `O=C1CCC(c2cccnc2)N1CO` (stereo not shown) [N-(hydroxyl-methyl) norcotinine]: the “average share of cotinine metabolites in urine” value in data set [2] is given as 4%.
On to `COC(=O)[C@H](c1ccccc1Cl)N1CCc2sccc2C1` [clopidogrel], for which, in data set [1] (10 µM inhibitor), the “decrease in COX formation” value came out at 21%. Further, the increased enzyme efficacy at CYP2C19 is given as 35%–40%.
As to `CN1C(=O)CC[C@H]1c1cccnc1` [cotinine], the “half-life of elimination from plasma” value in data set [3] was 10 to 27 h. In data set [4] (COX formation from cotinine), the Km is 550 ± 49 µM. Further, the Vmax in data set [4] (COX formation) is 587 ± 26 pmol/min/mg. Further, the Km at 30 min on CYP2E1 is more than 10000 µM; on CYP2B6 [5] it was 810 ± 24 µM; on CYP3A4, more than 10000 µM.
Consider `CC(C)(C(=O)c1cccnc1)c1cccnc1` [metyrapone], for which the “effect on phenobarbital-induced increase of COX production” value in the data set with P450 is on record as “negated”.
Consider `CN1CCC[C@H]1c1cccnc1` [nicotine], for which the Km in the data set on CYP2A6 is 95 µM; in the data set on CYP2B6 [6], 550 µM. In addition, the “share of metabolism via formation of cotinine by CYP2A6” value in data set [7] is given as approximately 70%.
For the compound `COc1ccc2[nH]c([S+]([O-])Cc3ncc(C)c(OC)c3C)nc2c1` (stereo not shown) [omeprazole], the increased enzyme efficacy at CYP2C19 is given as 35%–40%.
With `CCC1(c2ccccc2)C(=O)NC(=O)NC1=O` [phenobarbital], in the data set on P450, the “increase of COX production” value is given as “eightfold”.
